From patent US20260297080A1, “BICYCLIC COMPOUNDS AS CDK INHIBITORS” (BeOne Medicines I GmbH, priority 2022, published 2026)

Experiments:
CDK2/Cyclin E1 = CDK2/Cyclin E1 (Homo sapiens, UniProt P24941); assay: CDK2/Cyclin E1 Biochemical Assay (TR-FRET), 0.060 mM ATP; conditions: 0.15 μM Rb (Ser780)-biotin substrate, pH7.0, 60 min preincubation, 120 min reaction, room temperature
Procedure, shortened: (§1)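 Phosphorylation of a biotin-tagged Rb Ser780 peptide (0.15 μM) is measured by time-resolved FRET between a europium-labelled phospho-specific antibody and streptavidin-XL665. Compound (0–10 μM) sits with enzyme 60 min first; the kinase reaction then proceeds 120 min at room temperature, pH 7.0.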

CDK1/Cyclin B1 = CDK1/Cyclin B1 (Homo sapiens, UniProt P06493); assay: CDK1/Cyclin B1 Biochemical Assay (TR-FRET), 0.015 mM ATP; conditions: 0.15 μM Rb (Ser780)-biotin substrate, pH7.0, 60 min preincubation, 120 min reaction, room temperature
Sequence of CDK1/Cyclin B1 (P06493 whole entry): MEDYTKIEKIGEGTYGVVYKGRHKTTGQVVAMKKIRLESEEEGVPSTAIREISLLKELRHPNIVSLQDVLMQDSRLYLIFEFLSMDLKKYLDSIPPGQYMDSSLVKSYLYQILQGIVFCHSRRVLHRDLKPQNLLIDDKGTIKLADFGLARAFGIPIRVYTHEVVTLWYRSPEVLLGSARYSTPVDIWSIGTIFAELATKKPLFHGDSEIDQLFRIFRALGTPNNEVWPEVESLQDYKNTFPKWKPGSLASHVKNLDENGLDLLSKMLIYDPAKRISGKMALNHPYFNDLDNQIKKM
Sequence of CDK1/Cyclin B1 (P14635 whole entry partner): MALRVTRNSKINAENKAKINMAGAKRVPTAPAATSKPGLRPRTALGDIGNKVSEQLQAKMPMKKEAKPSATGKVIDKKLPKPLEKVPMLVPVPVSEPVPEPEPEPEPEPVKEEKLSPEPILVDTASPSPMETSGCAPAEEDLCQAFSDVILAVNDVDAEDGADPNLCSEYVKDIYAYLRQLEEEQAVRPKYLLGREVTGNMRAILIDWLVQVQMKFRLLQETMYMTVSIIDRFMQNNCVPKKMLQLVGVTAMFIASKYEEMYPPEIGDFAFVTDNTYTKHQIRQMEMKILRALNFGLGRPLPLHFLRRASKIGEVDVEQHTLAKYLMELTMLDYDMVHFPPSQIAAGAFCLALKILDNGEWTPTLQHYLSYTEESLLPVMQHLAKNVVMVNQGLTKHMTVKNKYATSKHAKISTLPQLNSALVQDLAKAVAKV
Procedure, shortened: as §1

IC50 (CDK2/Cyclin E1) [µM]	IC50 (CDK1/Cyclin B1) [µM]	SMILES
0.0017	0.056	CN1c2ccc(Nc3cc([C@@H]4CC[C@H](OC(=O)NC(C)(C)CO)C4)[nH]n3)c(F)c2CS1(=O)=O (single isomer, unassigned) [Example 327b, cis-3-(3-((4-fluoro-1-methyl-2,2-dioxido-1,3-dihydrobenzo[c]isothiazol-5-yl)amino)-1H-pyrazol-5-yl)cyclopentyl(1-hydroxy-2-methylpropan-2-yl)carbamate]
0.0014	0.015	CC[C@H](C)NC(=O)O[C@H]1CC[C@@H](c2cc(Nc3ccc4c(c3F)CS(=O)(=O)N4)n[nH]2)C1 (single isomer, unassigned) [Example 383b]
0.0032	0.043	CC(NC(=O)O[C@H]1CC[C@@H](c2cc(Nc3ccc4c(c3)CS(=O)(=O)N4)n[nH]2)C1)C1COC1 (relative stereo) [Example 343, cis-3-(3-((2,2-dioxido-1,3-dihydrobenzo[c]isothiazol-5-yl)amino)-1H-pyrazol-5-yl)cyclopentyl(1-(oxetan-3-yl)ethyl)carbamate]
0.0019	0.119	CC1(NC(=O)O[C@H]2CC[C@@H](c3cc(Nc4ccc5c(c4F)CS(=O)(=O)N5CCO)n[nH]3)C2)CCOC1 (relative stereo) [Example 393, cis-3-(3-((4-fluoro-1-(2-hydroxyethyl)-2,2-dioxido-1,3-dihydrobenzo[c]isothiazol-5-yl)amino)-1H-pyrazol-5-yl)cyclopentyl(3-methyltetrahydrofuran-3-yl)carbamate]
0.0062	0.017	CC[C@H](C)NC(=O)O[C@H]1CC[C@@H](c2cc(Nc3ccc4c(c3)CS(=O)(=O)N4)n[nH]2)C1 (single isomer, unassigned) [Example 323b]
0.01	0.196	[2H]C([2H])([2H])N1c2c(F)cc(Nc3cc([C@@H]4CC[C@H](OC(=O)NC(C)C)C4)[nH]n3)cc2CS1(=O)=O (single isomer, unassigned) [Example 289a, cis-3-(3-((7-fluoro-1-(methyl-d3)-2,2-dioxido-1,3-dihydrobenzo[c]isothiazol-5-yl)amino)-1H-pyrazol-5-yl)cyclopentyl isopropylcarbamate]
0.0021	0.067	COCC(C)(C)NC(=O)O[C@H]1CC[C@@H](c2cc(Nc3ccc4c(c3F)CS(=O)(=O)N4CC(F)(F)F)n[nH]2)C1 (relative stereo) [Example 416, cis-3-(3-((4-fluoro-2,2-dioxido-1-(2,2,2-trifluoroethyl)-1,3-dihydrobenzo[c]isothiazol-5-yl)amino)-1H-pyrazol-5-yl)cyclopentyl(1-methoxy-2-methylpropan-2-yl)carbamate]
0.0018	0.147	CC(CC(F)(F)F)NC(=O)O[C@H]1CC[C@@H](c2cc(Nc3cc4c(cc3F)S(=O)(=O)NC4)n[nH]2)C1 (relative stereo) [Example 412, cis-3-(3-((6-fluoro-1,1-dioxido-2,3-dihydrobenzo[d]isothiazol-5-yl)amino)-1H-pyrazol-5-yl)cyclopentyl(4,4,4-trifluorobutan-2-yl)carbamate]
0.01	0.402	O=C(NC1(CO)CC1)O[C@H]1CC[C@@H](c2cc(Nc3ccc4c(c3F)CNS4(=O)=O)n[nH]2)C1 (relative stereo) [Example 333, cis-3-(3-((4-fluoro-1,1-dioxido-2,3-dihydrobenzo[d]isothiazol-5-yl)amino)-1H-pyrazol-5-yl)cyclopentyl(1-(hydroxymethyl)cyclopropyl)carbamate]
0.022	0.635	C[C@@H](CO)NC(=O)O[C@H]1CC[C@@H](c2cc(Nc3ccc4c(c3F)CS(=O)(=O)N4C)n[nH]2)C1 (relative stereo) [Example 348, cis-3-(3-((4-fluoro-1-methyl-2,2-dioxido-1,3-dihydrobenzo[c]isothiazol-5-yl)amino)-1H-pyrazol-5-yl)cyclopentyl((S)-1-hydroxypropan-2-yl)carbamate]

More lines, now with the values behind:

SMILES	IC50 (CDK2/Cyclin E1) [µM]	IC50 (CDK1/Cyclin B1) [µM]
CC(C)NC(=O)N[C@H]1CC[C@@H](c2cc(Nc3ccc4c(c3)CNS4(=O)=O)n[nH]2)C1 (relative stereo) [Example 19, cis-1-(3-(3-((1,1-dioxido-2,3-dihydrobenzo[d]isothiazol-5-yl)amino)-1H-pyrazol-5-yl)cyclopentyl)-3-isopropylurea]	0.305	1.07
CC(=O)N1CC(N2Cc3c(ccc(Nc4cc([C@@H]5CC[C@H](OC(=O)NC(C)C)C5)[nH]n4)c3F)S2(=O)=O)C1 (relative stereo) [Example 90, cis-3-(3-((2-(1-acetylazetidin-3-yl)-4-fluoro-1,1-dioxido-2,3-dihydrobenzo[d]isothiazol-5-yl)amino)-1H-pyrazol-5-yl)cyclopentyl isopropylcarbamate]	0.02	0.762
CC(CC(F)(F)F)NC(=O)O[C@H]1CC[C@@H](c2cc(Nc3ccc4c(c3)CS(=O)(=O)N4C)n[nH]2)C1 (relative stereo) [Example 229, cis-3-(3-((1-methyl-2,2-dioxido-1,3-dihydrobenzo[c]isothiazol-5-yl)amino)-1H-pyrazol-5-yl)cyclopentyl(4,4,4-trifluorobutan-2-yl)carbamate]	0.0064	0.03
COCC(C)NC(=O)O[C@H]1CC[C@@H](c2cc(Nc3ccc4c(c3)CS(=O)(=O)N4C)n[nH]2)C1 (relative stereo) [Example 226, cis-3-(3-((1-methyl-2,2-dioxido-1,3-dihydrobenzo[c]isothiazol-5-yl)amino)-1H-pyrazol-5-yl)cyclopentyl(1-methoxypropan-2-yl)carbamate]	0.002	0.077
CC1(NC(=O)O[C@H]2CC[C@@H](c3cc(Nc4ccc5c(c4F)CNS5(=O)=O)n[nH]3)C2)CCOC1 (single isomer, unassigned) [Example 162b, cis-3-(3-((4-fluoro-1,1-dioxido-2,3-dihydrobenzo[d]isothiazol-5-yl)amino)-1H-pyrazol-5-yl)cyclopentyl(3-methyltetrahydrofuran-3-yl)carbamate]	0.0011	0.186
O=C(O[C@H]1CC[C@@H](c2cc(Nc3ccc4c(c3)CNS4(=O)=O)n[nH]2)C1)N1CCCC1 (relative stereo) [Example 174, cis-3-(3-((1,1-dioxido-2,3-dihydrobenzo[d]isothiazol-5-yl)amino)-1H-pyrazol-5-yl)cyclopentyl pyrrolidine-1-carboxylate]	0.0065	0.136
CC1(NC(=O)O[C@H]2CC[C@@H](c3cc(Nc4ccc5c(c4F)CNS5(=O)=O)n[nH]3)C2)CCOC1 (single isomer, unassigned) [Example 162a, cis-3-(3-((4-fluoro-1,1-dioxido-2,3-dihydrobenzo[d]isothiazol-5-yl)amino)-1H-pyrazol-5-yl)cyclopentyl(3-methyltetrahydrofuran-3-yl)carbamate]	0.0034	0.456
CC(C)NC(=O)O[C@H]1CC[C@@H](c2cc(Nc3ccc4c(c3F)CS(=O)(=O)N4CC(F)(F)F)n[nH]2)C1 (single isomer, unassigned) [Example 263b, cis-3-(3-((4-fluoro-2,2-dioxido-1-(2,2,2-trifluoroethyl)-1,3-dihydrobenzo[c]isothiazol-5-yl)amino)-1H-pyrazol-5-yl)cyclopentyl isopropylcarbamate]	0.0051	0.091
CC(C)NC(=O)O[C@H]1CC[C@@H](c2cc(Nc3ccc4c(c3)S(=O)(=O)NC4C)[nH]n2)C1 (single isomer, unassigned) [Example 5a, cis-3-(5-((3-methyl-1,1-dioxido-2,3-dihydrobenzo[d]isothiazol-6-yl)amino)-1H-pyrazol-3-yl)cyclopentyl isopropylcarbamate]	0.0022	0.049
CC(C)NC(=O)O[C@H]1CC[C@@H](c2cc(Nc3ccc4c(c3F)CN(CC3CCN(C)C3=O)S4(=O)=O)n[nH]2)C1 (relative stereo) [Example 111, cis-3-(3-((4-fluoro-2-((1-methyl-2-oxopyrrolidin-3-yl)methyl)-1,1-dioxido-2,3-dihydrobenzo[d]isothiazol-5-yl)amino)-1H-pyrazol-5-yl)cyclopentyl isopropylcarbamate]	0.0021	0.225
CN1c2ccc(Nc3cc([C@@H]4CC[C@H](OC(=O)NC5COC5)C4)[nH]n3)cc2CS1(=O)=O (relative stereo) [Example 236, cis-3-(3-((1-methyl-2,2-dioxido-1,3-dihydrobenzo[c]isothiazol-5-yl)amino)-1H-pyrazol-5-yl)cyclopentyl oxetan-3-ylcarbamate]	0.047	0.32
CC(=O)N1CC(CN2Cc3c(ccc(Nc4cc([C@@H]5CC[C@H](OC(=O)NC(C)C)C5)[nH]n4)c3F)S2(=O)=O)C1 (relative stereo) [Example 107, cis-3-(3-((2-((1-acetylazetidin-3-yl)methyl)-4-fluoro-1,1-dioxido-2,3-dihydrobenzo[d]isothiazol-5-yl)amino)-1H-pyrazol-5-yl)cyclopentyl isopropylcarbamate]	0.0096	0.532
CC(C)NC(=O)O[C@H]1CC[C@@H](c2cc(Nc3ccc4c(c3F)CN(C3COC3)S4(=O)=O)n[nH]2)C1 (single isomer, unassigned) [Example 133b, cis-3-(3-((4-fluoro-2-(oxetan-3-yl)-1,1-dioxido-2,3-dihydrobenzo[d]isothiazol-5-yl)amino)-1H-pyrazol-5-yl)cyclopentyl isopropylcarbamate]	0.0086	0.456
CC(C)NC(=O)O[C@H]1CC[C@@H](c2cc(Nc3ccc4c(c3)C(C)(C)S(=O)(=O)N4)n[nH]2)C1 (relative stereo) [Example 194, cis-3-(3-((3,3-dimethyl-2,2-dioxido-1,3-dihydrobenzo[c]isothiazol-5-yl)amino)-1H-pyrazol-5-yl)cyclopentyl isopropylcarbamate]	0.0037	0.086
